Test results published in patent US12486218B2, “Compounds advantageous in the treatment of central nervous system diseases and disorders” (AurimMed Pharma, Inc., priority 2008, dated 2025).

Key:
mice [1] = assay: Maximal Electroshock Seizure (MES) test, mice i.p.; type: in vivo; conditions: mice; at 100 mg/kg
mice [2] = assay: Subcutaneous Metrazol Seizure threshold (s.c. MET) test, mice i.p.; type: in vivo; conditions: for activity in the s.c. MET test: mice
mice [3] = assay: 6 Hz (minimal clonic seizure) model, mice i.p.; type: in vivo; conditions: for 6 Hz (32 mA), fraction of animals: mice i.p.; for activity in the 6 Hz (minimal clonic seizure) model: mice, at 100 mg/kg
mice [4] = assay: Corneal kindled mouse model; type: in vivo; conditions: mice i.p.; 100 mg/kg @ 0.25 hr
rats [5] = assay: MES test, rats p.o.; type: in vivo; conditions: at 30 mg/kg
[6] = test system: rat dopaminergic N27 cells; assay: N27 protection assay against oxidative stress (H2O2 or MPP+; MTT and LDH); type: cell-based; conditions: drug 24 hours before 200 μM H2O2 or 640 μM MPP+
Description: FIGS. 20A-25D data are shown illustrating neuroprotective and neuroregenerative effects observed in rat dopaminergic N27 cells. Rat dopaminergic N27 cells are commonly used in in vitro and in vivo model systems for studying Parkinson's disease. Parkinson's disease is a neurodegenerative disorder of the central nervous system that affects more than 6 million people worldwide. The motor symptoms of Parkinson's disease result from the death of dopamine generating cells in the substantia nigra, a region of the midbrain.
The N27 rat dopaminergic neuron cell line was harvested from E12 rat mesencephalic tissue and was transfected with SV40 to immortalize the cell line. The N27 cell line, when injected into the striata of 6-hydroxydopamine-lesioned rats (an animal model of PD) caused a time-dependent improvement in neurological deficits. This immortalized cell line has been carefully characterized in studies of dopamine biosynthesis, neurotoxicity and used as a dopaminergic neuron model studies.
The N27 in vitro Parkinson's disease model included a test of cell viability and cell toxicity in response to exposure to oxidative stress (e.g., either 200 μM H2O2 or 640 μM MPP+).
Cell viability was tested using the MTT assay. The MTT assay is a colorimetric analysis based on the activities of mitochondrial NAD(P)H-dependent cellular oxidoreductase enzymes. These enzymes are capable of reducing the tetrazolium dye, MTT [3-(4,5-dimethylthiazol-2-yl)-2,5-diphenyltetrazolium] bromide, to an insoluble formazan (purple). […] More viable cells equal more accumulation of the insoluble formazan dye.
Cell toxicity was tested using the […] (LDH) assay. Cells that are stressed secrete LDH. In general, the more cells are stressed, the LDH they secrete into their media. The LDH assay is a reliable colorimetric assay to measure quantitatively the […] (LDH) that is released into the cell culture media from damaged cells as a biomarker for cytotoxicity and cytolysis.
FIGS. 20A-25D present data from two types of assays: protection and recovery assays. In the protection assays, the drug candidate was applied to the cells at various concentrations for 24 hours, followed by the exposure to oxidative stress (either 200 μM H2O2 or 640 μM MPP+) for measuring neuroprotective effect. H2O2 provides a broad measure of oxidative stress, while MPP+ gives a more specific oxidative stress to dopaminergic neurons.
The protection assay results are shown in panels A-C of FIGS. 20-25 In the recovery assays, the cells were first damaged by exposure to H2O2 and then various concentrations of the drug were applied to the cells. The results for the recovery assays are shown the D panels of FIGS. 20-25.

SMN2 promoter = SMN2 promoter β-lactamase reporter assay in NSC34 motor neuron-like cells; type: cell-based; conditions: for Promoter (SMN2 promoter test, summary YES/NO): Table 13 summary; for SMN2 promoter activity: treatment for 19 hours at a concentration of 1 μM
Procedure: FIG. 30 illustrates a screen for SMN2 expression of a number of compounds described herein.
SMN2 promoter activity was measured using NSC34 motor neuron-like cells stably transfected with a β-lactamase (BLA) reporter gene under the control of a 3.4-kilobase fragment of the SMN2 promoter. D156844 was used as a positive control for this assay.

[7] = test system: type II SMA fibroblasts (GM03813); assay: SMN protein localization, gem counting in type II SMA fibroblasts; type: cell-based; conditions: 100 nM-10 μM, 5 days
Procedure: To validate the SMN2 promoter and exon 7 screens, the effects of compounds H, H (acid form), AY, F, BX, and BY were evaluated on the basis of expression and localization of SMN protein in type II SMA fibroblasts (GM03813). In a normal cell, SMN protein localized within the nucleus to discreet foci known as gems. In SMN-deficient SMA cells, the number of gems is greatly diminished. Although the function of gems is unknown, it is believed that they are somehow involved in the snRNP assembly function of SMN. Gem counting can, therefore, be considered an assay for SMN function.
GM03813 fibroblasts were treated with different doses (100 nM-10 μM) of compounds H, H (acid form), AY, F, BX, and BY for 5 days. SMN immunostaining was then completed on these cells and the number of gems was counted in 100 randomly-selected nuclei. […] In fact, the gem counts at the highest dose of compound H approach those observed for carrier fibroblasts (GM03814). When compared against treatment with 1 μM D157495—a D156844 derivative, all of the compounds tested performed as well as or, even better than D157495.

rats [8] = assay: Pilocarpine-induced Status Epilepticus in Rats (prevention; intervention @ 30 min); conditions: Rattus norvegicus, read-out: Prevention, Protection
Procedure: The animal testing was performed using the protocols developed in the Anticonvulsant Screening Program (ASP) at the National Institute of Neurological Disorders and Stroke (NINDS), National Institutes of Health (NIH).

| Compound | activity in the MES test (mice [1]) | activity in the s.c. MET test (mice [2]; at 300 mg/kg) | Corneal Kindled, Average seizure score (mice [4]) | Corneal Kindled, fraction of animals (mice [4]) | activity in the MES test (rats [5]) | neuroprotective effect against H2O2 and MPP+ oxidative stresses (MTT and LDH assays) [6] | Promoter (SMN2 promoter test, summary YES/NO) (SMN2 promoter) | SMN2 promoter activity (SMN2 promoter) | activity in the 6 Hz (minimal clonic seizure) model (mice [3]) | gem counts (SMN immunostaining, 100 nuclei) [7] | responders at 65 mg/kg (rats [8]) | further results |
| --- | --- | --- | --- | --- | --- | --- | --- | --- | --- | --- | --- | --- |
| NC(=O)CC(c1ccc(Cl)cc1)C1CC1 (stereo not shown) [X, 3-(4-Chloro-phenyl)-3-cyclopropyl-propionamide] | activity | activity | score is 3: | 2/4 @ | activity | statistically significant, dose-dependent neuroprotection | YES | increased SMN2 promoter activity | – | – | – | 6 Hz (32 mA), fraction of animals (mice [3]; 75 mg/kg @ 1.0 hr): 4/4; 6 Hz (32 mA), fraction of animals (mice [3]; 75 mg/kg @ 2.0 hr): 2/4; 6 Hz (32 mA), fraction of animals (mice [3]; 75 mg/kg @ 4.0 hr): 1/4 @ |
| CC(CC(N)=O)c1ccc(N2CCOCC2)cc1 (stereo not shown) [Compound AY, 3-(4-Morpholin-4-yl-phenyl)-butyramide] | – | – | – | – | – | – | – | increased SMN2 promoter activity | activity | increase gem counts in a dose-dependent manner | – | 6 Hz (32 mA), fraction of animals (mice [3]; 100 mg/kg @ 1.0 hr): 1/4; responders at 600 mg/kg (rats [8]): 38% |
| COc1ccc(C(CC(N)=O)C(C)C)cc1C (stereo not shown) [AS, 3-(4-Methoxy-3-methyl-phenyl)-4-methylpentanoic acid amide] | activity | – | – | – | activity | potent dose-dependent neuroprotective effects | YES | increased SMN2 promoter activity | – | – | – | responders at 200 mg/kg (rats [8]): 100% |
| CC(CC(=O)O)c1ccc(OC(F)(F)F)cc1 (racemic) [H (acid form)] | – | – | – | – | – | – | – | – | – | increase gem counts in a dose-dependent manner | – | relative potency in increasing gem counts [7]: most potent |
| NC(=O)CC(c1ccc(F)cc1)C1CC1 (stereo not shown) [Y, 3-Cyclopropyl-3-(4-fluoro-phenyl)propionamide] | activity | – | 0: (0, 0, | 4/4 @ | – | – | – | increased SMN2 promoter activity | activity | – | 88% | s.c. MET, fraction of animals (mice [2]; mice i.p., 100 mg/kg @ 0.5 hr): 2/5 @0.5 hrs,; activity in the s.c. MET test (mice [2]; at 100 mg/kg): activity |
| CC(C)C(CC(N)=O)c1ccc(F)cc1 (stereo not shown) [AQ, 3-(4-Fluoro-phenyl)-4-methyl-pentanoic acid-amide] | activity | activity | – | – | activity | – | – | – | – | – | 86% | SMN2 promoter assay, evidence of activity (may warrant further study) (SMN2 promoter; NSC34 BLA reporter cells): show evidence of activity |
